Experimental data as given in patent publication US8076338B2, “Kinase modulators and methods of use” (Exelixis, Inc., priority 2004, dated 2011).
Where two headings read alike, the source gives them in different places.

Experiments:
[1] = biological target: p70S6K (Homo sapiens, UniProt P23443); test: Luciferase-coupled chemiluminescence kinase assay (ATP consumption); assay type: biochemical
In short: (§1)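 Activity is read as ATP depletion: luciferase-luciferin reagent added after a 3 h ambient-temperature kinase reaction, with total ATP use limited to 25-60%. Before ATP addition, 2.5-5 nM kinase and compound were preincubated 30 min in Tris pH 7.5/MgCl2/TX-100/DTT buffer; […].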

[2] = biological target: AktK (Homo sapiens, UniProt P31749); test: as above; assay type: biochemical; conditions: read-out: AKT-1 IC50
In short: as §1

Sequence of p70S6K (P23443 whole entry): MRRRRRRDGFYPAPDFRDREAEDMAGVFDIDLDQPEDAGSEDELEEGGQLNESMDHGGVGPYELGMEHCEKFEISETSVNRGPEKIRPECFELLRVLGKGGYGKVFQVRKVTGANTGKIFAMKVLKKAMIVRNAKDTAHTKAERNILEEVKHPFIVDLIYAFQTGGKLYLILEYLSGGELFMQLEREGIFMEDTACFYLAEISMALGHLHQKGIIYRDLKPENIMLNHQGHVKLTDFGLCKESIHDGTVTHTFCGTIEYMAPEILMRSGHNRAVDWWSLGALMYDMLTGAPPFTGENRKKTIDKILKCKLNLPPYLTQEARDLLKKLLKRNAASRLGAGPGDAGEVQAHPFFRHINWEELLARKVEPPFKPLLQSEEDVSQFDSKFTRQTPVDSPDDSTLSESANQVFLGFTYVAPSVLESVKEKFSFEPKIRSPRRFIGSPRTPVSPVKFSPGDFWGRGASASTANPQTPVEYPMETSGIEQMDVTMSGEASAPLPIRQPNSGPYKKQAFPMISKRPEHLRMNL
Sequence of AktK (P31749 whole entry): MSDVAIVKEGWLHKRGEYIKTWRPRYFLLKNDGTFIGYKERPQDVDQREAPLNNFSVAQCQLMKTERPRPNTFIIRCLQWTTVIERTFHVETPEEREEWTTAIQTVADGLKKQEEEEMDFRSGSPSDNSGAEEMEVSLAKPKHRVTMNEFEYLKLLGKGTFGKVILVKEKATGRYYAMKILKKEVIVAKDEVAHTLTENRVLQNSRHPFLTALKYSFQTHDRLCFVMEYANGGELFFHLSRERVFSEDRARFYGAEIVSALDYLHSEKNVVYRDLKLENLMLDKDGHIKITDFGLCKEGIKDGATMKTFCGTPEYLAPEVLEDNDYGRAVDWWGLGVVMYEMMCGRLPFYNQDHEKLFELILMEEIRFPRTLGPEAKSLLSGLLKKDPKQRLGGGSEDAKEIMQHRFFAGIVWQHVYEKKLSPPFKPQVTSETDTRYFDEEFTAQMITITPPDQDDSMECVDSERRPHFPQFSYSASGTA

Row | IC50 ([1]; Table 1, class symbols per key) [nM] | IC50 ([2]; Table 1, class symbols per key) [nM] | IC50 [1] [nM] | IC50 [2] [nM] | Structure (SMILES)
1 | < 100 | 100 to 1000 |  |  | CNC(=O)c1cc(NCCN2CCCC2)c(C)c(N2CCN(c3ncnc4[nH]nc(Br)c34)CC2)c1 [Entry 202, 3-[4-(3-bromo-1H-pyrazolo[3,4-d]pyrimidin-4-yl)piperazin-1-yl]-N,4-dimethyl-5-[(2-pyrrolidin-1-ylethyl)amino]benzamide]
2 | < 100 | 100 to 1000 |  |  | COC(=O)c1cc(Br)c(C)c(N2CCN(c3ncnc4[nH]nc(Br)c34)CC2)c1 [Entry 186, methyl 3-bromo-5-[4-(3-bromo-1H-pyrazolo[3,4-d]pyrimidin-4-yl)piperazin-1-yl]-4-methylbenzoate]
3 |  |  | 100 to 1000 | 1000 to 10000 | Cc1ccc(Cl)cc1N1CCN(c2ncnc3[nH]nc(-c4ccc(F)cc4)c23)CC1 [Entry 357, 4-[4-(5-chloro-2-methylphenyl)piperazin-1-yl]-3-(4-fluorophenyl)-1H-pyrazolo[3,4-d]pyrimidine]
4 | < 100 | 100 to 1000 |  |  | Cc1c(NCCN2CCCC2)cc(C(=O)NOCC2CC2)cc1N1CCN(c2ncnc3[nH]nc(Br)c23)CC1 [Entry 258, 3-[4-(3-bromo-1H-pyrazolo[3,4-d]pyrimidin-4-yl)piperazin-1-yl]-N-[(cyclopropylmethyl)oxy]-4-methyl-5-[(2-pyrrolidin-1-ylethyl)amino]benzamide]
5 | < 100 | < 100 |  |  | Clc1ccc(-c2ccccc2OCCN2CCCC2)cc1N1CCN(c2ncnc3[nH]nc(Br)c23)CC1 [Entry 287, 3-bromo-4-(4-{4-chloro-2′-[(2-pyrrolidin-1-ylethyl)oxy]biphenyl-3-yl}piperazin-1-yl)-1H-pyrazolo[3,4-d]pyrimidine]
6 |  |  | 1000 to 10000 | 1000 to 10000 | Cc1ccc(Cl)cc1N1CCN(c2ncnc3[nH]nc(-c4ccc(OCCCN(C)C)cc4)c23)CC1 [Entry 380, 3-[(4-{4-[4-(5-chloro-2-methylphenyl)piperazin-1-yl]-1H-pyrazolo[3,4-d]pyrimidin-3-yl}phenyl)oxy]-N,N-dimethylpropan-1-amine]
7 |  |  | < 100 | 1000 to 10000 | COCCOCc1n[nH]c2ncnc(N3CCN(c4cc(Cl)ccc4C)CC3)c12 [Entry 328, 4-[4-(5-chloro-2-methylphenyl)piperazin-1-yl]-3-({[2-(methyloxy)ethyl]oxy}methyl)-1H-pyrazolo[3,4-d]pyrimidine]
8 | < 100 | < 100 |  |  | Brc1cc(NCCN2CCCC2)cc(N2CCN(c3ncnc4[nH]nc(Br)c34)CC2)c1 [Entry 265, 3-bromo-5-[4-(3-bromo-1H-pyrazolo[3,4-d]pyrimi-din-4-yl)piperazin-1-yl]-N-(2-pyrrolidin-1-ylethyl)aniline]
9 |  |  | < 100 | 100 to 1000 | Cc1ccc(Cl)cc1N1CCN(c2ncnc3[nH]nc(Br)c23)CC1 [Entry 329, 3-bromo-4-[4-(5-chloro-2-methylphenyl)piperazin-1-yl]-1H-pyrazolo[3,4-d]pyrimidine]
10 | < 100 | < 100 |  |  | Cc1c(NCCN(C)C)cc(OCC(C)(C)F)cc1N1CCN(c2ncnc3[nH]nc(Br)c23)CC1 [Entry 226, N′-{3-[4-(3-bromo-1H-pyrazolo[3,4-d]pyrimidin-4-yl)piperazin-1-yl]-5-[(2-fluoro-2-methylpropyl)oxy]-2-methylphenyl}-N,N-dimethyl-ethane-1,2-diamine]
11 | < 100 | 1000 to 10000 |  |  | Cc1ccc(C(=O)NCCN(C)C)cc1N1CCN(c2ncnc3[nH]nc(Br)c23)CC1 [Entry 213, 3-[4-(3-bromo-1H-pyrazolo[3,4-d]pyrimidin-4-yl)piperazin-1-yl]-N-[2-(dimethylamino)ethyl]-4-methylbenzamide]
12 |  |  | 1000 to 10000 | 1000 to 10000 | Cc1nc(N2CCN(c3cc(Cl)ccc3C)CC2)c2cn[nH]c2n1 [Entry 324, 4-[4-(5-chloro-2-methylphenyl)piperazin-1-yl]-6-methyl-1H-pyrazolo[3,4-d]pyrimidine]

The next lines start with the compound.

Row | Structure (SMILES) | IC50 ([1]; Table 1, class symbols per key) [nM] | IC50 ([2]; Table 1, class symbols per key) [nM] | IC50 [1] [nM] | IC50 [2] [nM]
13 | CCc1n[nH]c2ncnc(N3CCN(c4cc(Cl)cc(OCCCN5CCN(C)CC5)c4C)CC3)c12 [Entry 36, 4-[4-(5-chloro-2-methyl-3-{[3-(4-methylpiperazin-1-yl)propyl]oxy}phenyl)piperazin-1-yl]-3-ethyl-1H-pyrazolo[3,4-d]pyrimidine] | < 100 | 100 to 1000 |  | 
14 | CCc1n[nH]c2ncnc(N3CCN(c4cc(OCc5ccccc5)cc(NCCN5CCCC5)c4C)CC3)c12 [Entry 174, 3-[4-(3-ethyl-1H-pyrazolo[3,4-d]pyrimidin-4-yl)piperazin-1-yl]-2-methyl-5-[(phenylmethyl)oxy]-N-(2-pyrrolidin-1-ylethyl)aniline] | < 100 | 100 to 1000 |  | 
15 | Brc1n[nH]c2ncnc(N3CCN(c4ccccc4)CC3)c12 [Entry 152, 3-bromo-4-(4-phenylpiperazin-1-yl)-1H-pyrazolo[3,4-d]pyrimidine] | < 100 | ≥ 10000 |  | 
16 | Cc1c(OCCCN2CCOCC2)cc(Cl)cc1N1CCN(c2ncnc3[nH]nc(Br)c23)CC1 [Entry 38, 3-bromo-4-(4-{5-chloro-2-methyl-3-[(3-morpholin-4-ylpropyl)oxy]phenyl}piperazin-1-yl)-1H-pyrazolo[3,4-d]pyrimidine] | < 100 | 100 to 1000 |  | 
17 | Cc1c(NCCN2CCCC2)cc(C(=O)O)cc1N1CCN(c2ncnc3[nH]nc(Br)c23)CC1 [Entry 234, 3-[4-(3-bromo-1H-pyrazolo[3,4-d]pyrimidin-4-yl)piperazin-1-yl]-4-methyl-5-[(2-pyrrolidin-1-ylethyl)amino]benzoic acid] | < 100 | 1000 to 10000 |  | 
18 | N#Cc1ccc(N2CCN(c3ncnc4[nH]nc(Br)c34)CC2)cc1 [Entry 123, 4-[4-(3-bromo-1H-pyrazolo[3,4-d]pyrimidin-4-yl)piperazin-1-yl]benzonitrile] | < 100 | ≥ 10000 |  | 
19 | Fc1ccc(N2CCN(c3ncnc4[nH]nc(Br)c34)CC2)cc1Cl [Entry 93, 3-bromo-4-[4-(3-chloro-4-fluorophenyl)piperazin-1-yl]-1H-pyrazolo[3,4-d]pyrimidine] | < 100 | 1000 to 10000 |  | 
20 | CN(C)CCOc1nccnc1N1CCN(c2ncnc3[nH]nc(Br)c23)CC1 [Entry 119, 2-({3-[4-(3-bromo-1H-pyrazolo[3,4-d]pyrimidin-4-yl)piperazin-1-yl]pyrazin-2-yl}oxy)-N,N-dimethylethanamine] | 100 to 1000 | 1000 to 10000 |  | 
21 | Cc1c(NCCN2CCCC2)cc(Cl)cc1N1CCN(c2ncnc3[nH]nc(CC(C)C)c23)CC1 [Entry 162, 5-chloro-2-methyl-3-{4-[3-(2-methylpropyl)-1H-pyrazolo[3,4-d]pyrimidin-4-yl]piperazin-1-yl}-N-(2-pyrrolidin-1-ylethyl)aniline] | < 100 | 100 to 1000 |  | 
22 | Cc1c(NCCN2CCCC2)cc(OCC(F)(CF)CF)cc1N1CCN(c2ncnc3[nH]nc(Br)c23)CC1 [Entry 230, 3-[4-(3-bromo-1H-pyrazolo[3,4-d]pyrimidin-4-yl)piperazin-1-yl]-5-{[2,3-difluoro-2-(fluoro-methyl)propyl]oxy}-2-methyl-N-(2-pyrrolidin-1-ylethyl)aniline] | < 100 | < 100 |  | 
23 | Cc1c(OCCCN2CCCCC2)cc(Cl)cc1N1CCN(c2ncnc3[nH]nc(C(F)(F)F)c23)CC1 [Entry 69, 4-(4-{5-chloro-2-methyl-3-[(3-piperidin-1-ylpropyl)oxy]phenyl}piperazin-1-yl)-3-(trifluoromethyl)-1H-pyrazolo[3,4-d]pyrimidine] | < 100 | 100 to 1000 |  | 
